Results as given in ChEMBL document CHEMBL5058645, “Data for DCP probe JNJ-6204” (2022).

Columns and labels:
[1] = molecular target: Tyrosine-protein kinase ABL2 (Homo sapiens) (UniProt P42684); test: Arg(h) Kinase panel; conditions: Compound concentration 1.0 uM, tested as the 2H-labelled form
[2] = molecular target: Aurora kinase A (Homo sapiens) (UniProt O14965); test: Aurora-A(h) Kinase panel; conditions: Compound concentration 1.0 uM, tested as the 2H-labelled form
[3] = molecular target: BMP-2-inducible protein kinase (Homo sapiens) (UniProt Q9NSY1); test: BIKe(h) Kinase panel; conditions: Compound concentration 1.0 uM, tested as the 2H-labelled form
[4] = molecular target: Serine/threonine-protein kinase B-raf (Homo sapiens) (UniProt P15056); test: B-Raf(h) Kinase panel; conditions: Compound concentration 1.0 uM, tested as the 2H-labelled form
[5] = molecular target: Cyclin-dependent kinase 6 (Homo sapiens) (UniProt Q00534); test: CDK6/cyclinD3(h) Kinase panel; conditions: Compound concentration 1.0 uM, tested as the 2H-labelled form
[6] = molecular target: Tyrosine-protein kinase CSK (Homo sapiens) (UniProt P41240); test: CSK(h) Kinase panel; conditions: Compound concentration 1.0 uM, tested as the 2H-labelled form
[7] = molecular target: Serine/threonine-protein kinase DCLK2 (Homo sapiens) (UniProt Q8N568); test: DCAMKL2(h) Kinase panel; conditions: Compound concentration 1.0 uM, tested as the 2H-labelled form
[8] = molecular target: Serine/threonine-protein kinase DCLK3 (Homo sapiens) (UniProt Q9C098); test: DCAMKL3(h) Kinase panel; conditions: Compound concentration 1.0 uM, tested as the 2H-labelled form
[9] = molecular target: Eukaryotic elongation factor 2 kinase (Homo sapiens) (UniProt O00418); test: eEF-2K(h) Kinase panel; conditions: Compound concentration 1.0 uM, tested as the 2H-labelled form
[10] = molecular target: Ephrin type-B receptor 3 (Homo sapiens) (UniProt P54753); test: EphB3(h) Kinase panel; conditions: Compound concentration 1.0 uM, tested as the 2H-labelled form
[11] = molecular target: Tyrosine-protein kinase Fer (Homo sapiens) (UniProt P16591); test: Fer(h) Kinase panel; conditions: Compound concentration 1.0 uM, tested as the 2H-labelled form
[12] = molecular target: Tyrosine-protein kinase Fgr (Homo sapiens) (UniProt P09769); test: Fgr(h) Kinase panel; conditions: Compound concentration 1.0 uM, tested as the 2H-labelled form
[13] = molecular target: Tyrosine-protein kinase HCK (Homo sapiens) (UniProt P08631); test: Hck(h) activated Kinase panel; conditions: Compound concentration 1.0 uM, tested as the 2H-labelled form
[14] = molecular target: Insulin-like growth factor 1 receptor (Homo sapiens) (UniProt P08069); test: IGF-1R(h), activated Kinase panel; conditions: Compound concentration 1.0 uM, tested as the 2H-labelled form
[15] = molecular target: Insulin receptor-related protein (Homo sapiens) (UniProt P14616); test: IRR(h) Kinase panel; conditions: Compound concentration 1.0 uM, tested as the 2H-labelled form
[16] = molecular target: LIM domain kinase 1 (Homo sapiens) (UniProt P53667); test: LIMK1(h) Kinase panel; conditions: Compound concentration 1.0 uM, tested as the 2H-labelled form
[17] = molecular target: Mitogen-activated protein kinase 1 (Homo sapiens) (UniProt P28482); test: MAPK1(h) Kinase panel; conditions: Compound concentration 1.0 uM, tested as the 2H-labelled form
[18] = molecular target: Hepatocyte growth factor receptor (Homo sapiens) (UniProt P08581); test: Met(h) Kinase panel; conditions: Compound concentration 1.0 uM, tested as the 2H-labelled form
[19] = molecular target: MAPK/MAK/MRK overlapping kinase (Homo sapiens) (UniProt Q9UQ07); test: MOK(h) Kinase panel; conditions: Compound concentration 1.0 uM, tested as the 2H-labelled form
[20] = molecular target: Serine/threonine-protein kinase MRCK alpha (Homo sapiens) (UniProt Q5VT25); test: MRCKalpha(h) Kinase panel; conditions: Compound concentration 1.0 uM, tested as the 2H-labelled form
[21] = molecular target: Ribosomal protein S6 kinase alpha-4 (Homo sapiens) (UniProt O75676); test: MSK2(h) Kinase panel; conditions: Compound concentration 1.0 uM, tested as the 2H-labelled form
[22] = molecular target: FKBP12A/mTOR (Homo sapiens) (UniProt P62942+P42345); test: mTOR/FKBP12(h) Kinase panel; type: protein-complex assay; conditions: Compound concentration 1.0 uM, tested as the 2H-labelled form
[23] = molecular target: Serine/threonine-protein kinase Nek7 (Homo sapiens) (UniProt Q8TDX7); test: NEK7(h) Kinase panel; conditions: Compound concentration 1.0 uM, tested as the 2H-labelled form
[24] = molecular target: NUAK family SNF1-like kinase 2 (Homo sapiens) (UniProt Q9H093); test: NUAK2(h) Kinase panel; conditions: Compound concentration 1.0 uM, tested as the 2H-labelled form
[25] = molecular target: Serine/threonine-protein kinase PAK 2 (Homo sapiens) (UniProt Q13177); test: PAK2(h) Kinase panel; conditions: Compound concentration 1.0 uM, tested as the 2H-labelled form
[26] = molecular target: Serine/threonine-protein kinase PAK 4 (Homo sapiens) (UniProt O96013); test: PAK4(h) Kinase panel; conditions: Compound concentration 1.0 uM, tested as the 2H-labelled form
[27] = molecular target: Platelet-derived growth factor receptor alpha (Homo sapiens) (UniProt P16234); test: PDGFRalpha(h) Kinase panel; conditions: Compound concentration 1.0 uM, tested as the 2H-labelled form
[28] = molecular target: [Pyruvate dehydrogenase (acetyl-transferring)] kinase isozyme 2, mitochondrial (Homo sapiens) (UniProt Q15119); test: PDHK2(h) Kinase panel; conditions: Compound concentration 1.0 uM, tested as the 2H-labelled form
[29] = molecular target: cAMP-dependent protein kinase catalytic subunit alpha (Homo sapiens) (UniProt P17612); test: PKA(h) Kinase panel; conditions: Compound concentration 1.0 uM, tested as the 2H-labelled form
[30] = molecular target: RAC-gamma serine/threonine-protein kinase (Homo sapiens) (UniProt Q9Y243); test: PKBgamma (h) Kinase panel; conditions: Compound concentration 1.0 uM, tested as the 2H-labelled form
[31] = molecular target: Protein kinase C delta type (Homo sapiens) (UniProt Q05655); test: PKCdelta (h) Kinase panel; conditions: Compound concentration 1.0 uM, tested as the 2H-labelled form
[32] = molecular target: Protein kinase C epsilon type (Homo sapiens) (UniProt Q02156); test: PKCepsilon (h) Kinase panel; conditions: Compound concentration 1.0 uM, tested as the 2H-labelled form
[33] = molecular target: cGMP-dependent protein kinase 1 (Homo sapiens) (UniProt Q13976); test: PKG1beta (h) Kinase panel; conditions: Compound concentration 1.0 uM, tested as the 2H-labelled form
[34] = molecular target: Ribosomal protein S6 kinase alpha-3 (Homo sapiens) (UniProt P51812); test: Rsk2(h) Kinase panel; conditions: Compound concentration 1.0 uM, tested as the 2H-labelled form
[35] = molecular target: Serine/threonine-protein kinase Sgk3 (Homo sapiens) (UniProt Q96BR1); test: SGK3(h) Kinase panel; conditions: Compound concentration 1.0 uM, tested as the 2H-labelled form
[36] = molecular target: Serine/threonine-protein kinase 32A (Homo sapiens) (UniProt Q8WU08); test: STK32A(h) Kinase panel; conditions: Compound concentration 1.0 uM, tested as the 2H-labelled form
[37] = molecular target: BDNF/NT-3 growth factors receptor (Homo sapiens) (UniProt Q16620); test: TrkB(h) Kinase panel; conditions: Compound concentration 1.0 uM, tested as the 2H-labelled form
[38] = molecular target: Testis-specific serine/threonine-protein kinase 2 (Homo sapiens) (UniProt Q96PF2); test: TSSK2(h) Kinase panel; conditions: Compound concentration 1.0 uM, tested as the 2H-labelled form
[39] = molecular target: Tyrosine-protein kinase TXK (Homo sapiens) (UniProt P42681); test: Txk(h) Kinase panel; conditions: Compound concentration 1.0 uM, tested as the 2H-labelled form
[40] = molecular target: Serine/threonine-protein kinase VRK2 (Homo sapiens) (UniProt Q86Y07); test: VRK2(h) Kinase panel; conditions: Compound concentration 1.0 uM, tested as the 2H-labelled form
[41] = molecular target: Phosphatidylinositol 3-kinase C2 domain-containing subunit gamma (Homo sapiens) (UniProt O75747); test: PI3KC2g(h) Kinase panel; conditions: Compound concentration 1.0 uM, tested as the 2H-labelled form
[42] = molecular target: Phosphatidylinositol 5-phosphate 4-kinase type-2 alpha (Homo sapiens) (UniProt P48426); test: PIP4K2a(h) Kinase panel; conditions: Compound concentration 1.0 uM, tested as the 2H-labelled form
[43] = molecular target: 5-hydroxytryptamine receptor 1E (Homo sapiens) (UniProt P28566); conditions: Compound concentration 10.0 uM, tested as the 2H-labelled form
[44] = molecular target: Mu-type opioid receptor (Homo sapiens) (UniProt P35372); conditions: Compound concentration 10.0 uM, tested as the 2H-labelled form
[45] = molecular target: Histamine H1 receptor (Homo sapiens) (UniProt P35367); conditions: Compound concentration 10.0 uM, tested as the 2H-labelled form
[46] = molecular target: Histamine H3 receptor (Homo sapiens) (UniProt Q9Y5N1); conditions: Compound concentration 10.0 uM, tested as the 2H-labelled form
[47] = molecular target: Histamine H4 receptor (Homo sapiens) (UniProt Q9H3N8); conditions: Compound concentration 10.0 uM, tested as the 2H-labelled form
[48] = molecular target: Muscarinic acetylcholine receptor M2 (Homo sapiens) (UniProt P08172); conditions: Compound concentration 10.0 uM, tested as the 2H-labelled form
[49] = molecular target: Muscarinic acetylcholine receptor M3 (Homo sapiens) (UniProt P20309); conditions: Compound concentration 10.0 uM, tested as the 2H-labelled form
[50] = molecular target: Muscarinic acetylcholine receptor M4 (Homo sapiens) (UniProt P08173); conditions: Compound concentration 10.0 uM, tested as the 2H-labelled form
[51] = molecular target: Phosphorylase b kinase gamma catalytic chain, testis/liver isoform (Homo sapiens) (UniProt P15735); test: PhKgamma2(h) Kinase panel; conditions: Compound concentration 1.0 uM, tested as the 2H-labelled form

Measured: inhibition

Chain of Ephrin type-B receptor 3 (Homo sapiens) (P54753 whole entry): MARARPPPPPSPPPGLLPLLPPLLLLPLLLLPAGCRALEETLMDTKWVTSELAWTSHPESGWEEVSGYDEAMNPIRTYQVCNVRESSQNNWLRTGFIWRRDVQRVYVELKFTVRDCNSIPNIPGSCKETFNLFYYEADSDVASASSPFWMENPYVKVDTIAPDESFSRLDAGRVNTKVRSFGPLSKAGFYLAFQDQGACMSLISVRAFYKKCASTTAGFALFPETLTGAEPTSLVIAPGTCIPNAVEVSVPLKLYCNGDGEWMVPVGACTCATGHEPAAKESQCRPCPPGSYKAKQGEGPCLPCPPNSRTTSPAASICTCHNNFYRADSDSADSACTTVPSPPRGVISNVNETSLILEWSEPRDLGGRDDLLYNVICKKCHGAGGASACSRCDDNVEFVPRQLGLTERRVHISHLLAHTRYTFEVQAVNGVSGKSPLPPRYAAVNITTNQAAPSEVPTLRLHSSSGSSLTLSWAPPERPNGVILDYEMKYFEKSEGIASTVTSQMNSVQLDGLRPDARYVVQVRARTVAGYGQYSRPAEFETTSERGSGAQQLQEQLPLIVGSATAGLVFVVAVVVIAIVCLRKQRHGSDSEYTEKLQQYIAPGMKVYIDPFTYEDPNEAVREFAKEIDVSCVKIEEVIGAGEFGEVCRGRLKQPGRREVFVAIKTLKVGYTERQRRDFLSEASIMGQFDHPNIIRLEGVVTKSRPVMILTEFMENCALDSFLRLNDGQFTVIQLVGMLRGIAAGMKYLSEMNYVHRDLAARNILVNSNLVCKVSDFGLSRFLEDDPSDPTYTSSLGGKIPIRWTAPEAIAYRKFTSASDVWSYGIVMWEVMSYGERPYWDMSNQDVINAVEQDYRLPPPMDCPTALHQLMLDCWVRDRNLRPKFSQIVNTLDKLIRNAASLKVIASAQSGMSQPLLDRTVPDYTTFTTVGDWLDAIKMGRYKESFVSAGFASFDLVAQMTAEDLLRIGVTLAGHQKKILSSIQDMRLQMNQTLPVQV
Chain of Ribosomal protein S6 kinase alpha-3 (Homo sapiens) (P51812 whole entry): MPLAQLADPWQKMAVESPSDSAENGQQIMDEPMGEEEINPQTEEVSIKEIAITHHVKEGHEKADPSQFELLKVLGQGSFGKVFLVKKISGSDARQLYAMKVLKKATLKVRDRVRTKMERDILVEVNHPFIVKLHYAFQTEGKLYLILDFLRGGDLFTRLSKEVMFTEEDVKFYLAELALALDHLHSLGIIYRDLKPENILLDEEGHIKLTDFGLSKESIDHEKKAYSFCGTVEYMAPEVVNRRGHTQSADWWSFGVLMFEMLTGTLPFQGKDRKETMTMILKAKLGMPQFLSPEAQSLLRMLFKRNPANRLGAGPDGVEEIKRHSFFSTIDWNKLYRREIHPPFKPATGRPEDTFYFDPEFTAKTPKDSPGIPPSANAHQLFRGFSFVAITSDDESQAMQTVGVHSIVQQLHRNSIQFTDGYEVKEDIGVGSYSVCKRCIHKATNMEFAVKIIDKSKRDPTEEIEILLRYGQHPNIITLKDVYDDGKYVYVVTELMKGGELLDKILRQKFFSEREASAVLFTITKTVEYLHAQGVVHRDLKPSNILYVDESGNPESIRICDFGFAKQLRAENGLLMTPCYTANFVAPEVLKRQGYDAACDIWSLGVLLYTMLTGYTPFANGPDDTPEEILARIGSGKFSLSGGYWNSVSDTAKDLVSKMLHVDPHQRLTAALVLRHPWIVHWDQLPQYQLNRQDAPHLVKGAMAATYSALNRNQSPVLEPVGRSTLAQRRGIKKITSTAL
Chain of Serine/threonine-protein kinase DCLK2 (Homo sapiens) (Q8N568 whole entry): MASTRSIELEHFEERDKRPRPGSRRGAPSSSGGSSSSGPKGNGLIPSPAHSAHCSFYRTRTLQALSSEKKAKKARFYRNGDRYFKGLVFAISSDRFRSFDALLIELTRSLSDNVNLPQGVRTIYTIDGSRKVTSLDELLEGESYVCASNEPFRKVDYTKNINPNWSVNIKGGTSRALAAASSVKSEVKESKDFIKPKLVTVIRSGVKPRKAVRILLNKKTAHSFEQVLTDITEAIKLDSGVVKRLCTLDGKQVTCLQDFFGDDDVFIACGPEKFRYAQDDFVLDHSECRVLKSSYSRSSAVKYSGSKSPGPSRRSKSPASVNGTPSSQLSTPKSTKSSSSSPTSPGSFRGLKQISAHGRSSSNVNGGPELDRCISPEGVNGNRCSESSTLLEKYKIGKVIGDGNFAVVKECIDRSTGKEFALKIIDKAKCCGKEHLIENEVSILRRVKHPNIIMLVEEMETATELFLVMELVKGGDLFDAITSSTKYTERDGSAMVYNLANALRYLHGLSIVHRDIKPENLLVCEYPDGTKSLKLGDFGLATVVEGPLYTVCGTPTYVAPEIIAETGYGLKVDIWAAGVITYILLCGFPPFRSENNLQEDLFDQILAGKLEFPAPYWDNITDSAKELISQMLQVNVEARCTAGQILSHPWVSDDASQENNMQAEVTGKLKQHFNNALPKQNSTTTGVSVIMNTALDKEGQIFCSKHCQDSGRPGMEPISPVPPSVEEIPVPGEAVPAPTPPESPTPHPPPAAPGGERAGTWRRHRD
Chain of Serine/threonine-protein kinase 32A (Homo sapiens) (Q8WU08 whole entry): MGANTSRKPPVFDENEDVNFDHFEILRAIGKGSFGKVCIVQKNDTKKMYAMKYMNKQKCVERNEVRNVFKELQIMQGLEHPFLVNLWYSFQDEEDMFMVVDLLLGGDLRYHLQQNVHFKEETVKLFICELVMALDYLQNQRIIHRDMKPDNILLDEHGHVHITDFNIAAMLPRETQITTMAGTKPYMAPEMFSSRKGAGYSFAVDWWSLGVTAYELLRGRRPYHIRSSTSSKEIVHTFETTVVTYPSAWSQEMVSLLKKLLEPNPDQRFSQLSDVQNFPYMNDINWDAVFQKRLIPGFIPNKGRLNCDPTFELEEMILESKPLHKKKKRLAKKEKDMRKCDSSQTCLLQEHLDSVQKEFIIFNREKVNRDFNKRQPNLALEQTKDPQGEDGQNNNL
Chain of NUAK family SNF1-like kinase 2 (Homo sapiens) (Q9H093 whole entry): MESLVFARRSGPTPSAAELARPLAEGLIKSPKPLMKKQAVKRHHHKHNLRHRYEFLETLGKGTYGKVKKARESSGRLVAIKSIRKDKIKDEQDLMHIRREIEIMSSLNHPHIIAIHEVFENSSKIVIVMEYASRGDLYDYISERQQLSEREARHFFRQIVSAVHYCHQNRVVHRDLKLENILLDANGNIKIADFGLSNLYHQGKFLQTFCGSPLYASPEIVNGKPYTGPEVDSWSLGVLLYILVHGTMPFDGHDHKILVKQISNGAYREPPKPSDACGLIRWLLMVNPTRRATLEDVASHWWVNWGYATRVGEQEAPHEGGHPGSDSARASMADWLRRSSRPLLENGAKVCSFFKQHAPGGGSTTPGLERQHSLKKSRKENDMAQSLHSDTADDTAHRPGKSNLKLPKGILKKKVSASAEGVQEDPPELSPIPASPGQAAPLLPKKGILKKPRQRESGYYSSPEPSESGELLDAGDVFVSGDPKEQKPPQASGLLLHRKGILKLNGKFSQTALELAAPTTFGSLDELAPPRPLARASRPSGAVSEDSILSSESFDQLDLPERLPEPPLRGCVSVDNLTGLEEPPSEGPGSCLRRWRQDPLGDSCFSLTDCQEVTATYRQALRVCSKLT
Chain of BDNF/NT-3 growth factors receptor (Homo sapiens) (Q16620 32-822 limits assumed): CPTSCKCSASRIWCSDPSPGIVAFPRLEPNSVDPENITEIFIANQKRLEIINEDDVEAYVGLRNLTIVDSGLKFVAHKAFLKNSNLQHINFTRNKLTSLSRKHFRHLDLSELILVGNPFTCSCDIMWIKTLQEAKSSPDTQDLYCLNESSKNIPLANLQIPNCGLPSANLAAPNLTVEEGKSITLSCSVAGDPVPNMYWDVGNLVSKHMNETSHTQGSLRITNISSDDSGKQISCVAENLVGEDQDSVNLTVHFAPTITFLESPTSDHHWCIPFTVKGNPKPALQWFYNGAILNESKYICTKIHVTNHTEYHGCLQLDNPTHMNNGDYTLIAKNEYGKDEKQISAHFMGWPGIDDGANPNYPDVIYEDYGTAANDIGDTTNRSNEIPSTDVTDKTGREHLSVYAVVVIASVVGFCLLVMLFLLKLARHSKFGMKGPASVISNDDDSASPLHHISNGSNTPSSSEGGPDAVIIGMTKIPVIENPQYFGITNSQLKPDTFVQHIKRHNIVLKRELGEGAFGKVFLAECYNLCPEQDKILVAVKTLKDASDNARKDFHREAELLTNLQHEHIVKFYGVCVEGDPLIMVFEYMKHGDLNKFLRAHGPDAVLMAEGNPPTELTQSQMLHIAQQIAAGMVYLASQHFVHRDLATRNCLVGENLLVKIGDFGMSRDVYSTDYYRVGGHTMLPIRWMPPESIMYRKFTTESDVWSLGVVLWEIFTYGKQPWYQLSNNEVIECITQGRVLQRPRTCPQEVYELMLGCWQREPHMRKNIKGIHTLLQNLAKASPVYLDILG
Chain of Protein kinase C epsilon type (Homo sapiens) (Q02156 whole entry): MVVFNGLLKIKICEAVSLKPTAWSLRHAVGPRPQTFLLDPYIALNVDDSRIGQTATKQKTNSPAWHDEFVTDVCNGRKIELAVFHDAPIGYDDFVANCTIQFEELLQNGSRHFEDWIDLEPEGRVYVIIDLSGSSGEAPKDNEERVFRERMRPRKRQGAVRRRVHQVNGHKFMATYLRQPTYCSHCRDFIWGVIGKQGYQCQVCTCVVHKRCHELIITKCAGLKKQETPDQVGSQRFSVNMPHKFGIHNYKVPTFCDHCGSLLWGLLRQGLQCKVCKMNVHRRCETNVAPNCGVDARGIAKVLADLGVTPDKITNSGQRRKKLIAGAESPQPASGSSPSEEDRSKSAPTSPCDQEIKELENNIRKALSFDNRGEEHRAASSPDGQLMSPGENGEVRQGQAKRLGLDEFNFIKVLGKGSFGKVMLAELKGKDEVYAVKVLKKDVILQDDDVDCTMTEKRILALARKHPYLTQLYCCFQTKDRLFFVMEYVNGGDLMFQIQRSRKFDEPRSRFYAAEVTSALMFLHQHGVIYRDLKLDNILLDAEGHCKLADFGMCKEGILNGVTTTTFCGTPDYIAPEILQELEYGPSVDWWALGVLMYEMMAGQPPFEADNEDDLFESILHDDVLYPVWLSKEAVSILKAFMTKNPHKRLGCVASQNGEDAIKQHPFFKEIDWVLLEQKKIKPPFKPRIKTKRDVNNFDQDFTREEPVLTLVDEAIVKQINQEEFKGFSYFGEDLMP

CC1(C)Cn2nc(-c3ccc(F)cn3)c(-c3ccnc4[nH]ncc34)c2CO1
inactive: [1] 7% | [2] -6% | [3] -8% | [4] 16% | [5] -7% | [6] -3% | [7] 37% | [8] -6% | [9] 7% | [10] 14% | [11] 20% | [12] 7% | [13] 9% | [14] 1% | [15] -4% | [16] -9% | [17] 20% | [18] 8% | [19] -9% | [20] 6% | [21] -1% | [22] 5% | [23] 5% | [24] -1% | [25] -10% | [26] -5% | [27] 2% | [28] 26% | [29] 16% | [30] 18% | [31] 0% | [32] -5% | [33] 13% | [34] 20% | [35] 4% | [36] 9% | [37] -5% | [38] 11% | [39] 16% | [40] 8% | [41] -4% | [42] 0% | [43] 2.51% | [44] -6.9% | [45] -9.94% | [46] -1.16% | [47] 24.7% | [48] -0.4% | [49] -2.78% | [50] 1.83% | [51] -9%
